Test [1] concerns Eschericia coli (E. coli) strain ATCC25922. Description: Standard microdilution assay, MIC against E. coli ATCC25922. Type of test: cell-based. The settings on record: Escherichia coli; E. coli strain ATCC25922, standard microdilution assay; cutoff 16 micrograms/mL; read-out: MIC E. Coli. The gist of the method: (§1)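 MIC determined by broth microdilution following CLSI protocols, with reference strains run in parallel for quality control. Activity scored +/− at a cutoff of 16 micrograms/mL.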

The test system of test [2] is Staphylococcus aureus (S. aureus) 11540 strain. Put plainly: Standard microdilution assay, MIC against S. aureus 11540. Particulars: S. aureus 11540 strain, standard microdilution assay, cutoff 16 micrograms/mL, read-out: MIC S. aureus. Type of test: cell-based. The gist of the method: as §1
Background: Dilution methods test growth across graded concentrations, often in twofold steps.

As usually defined, the MIC is the smallest concentration in the dilution series that meets the test's criterion for growth inhibition.

Regarding `C[C@H](N)CCCc1cc(OC(F)(F)F)c(F)c(-c2cc3cn(-c4ccc(C(=O)NCCCNC(=N)N)cc4)c(=O)nc3[nH]2)c1` [Compound 461], the minimum inhibitory concentration (MIC) in test [1] and in test [2] was below 16 µg/mL each time.
Turning to `C[C@H](N)CCCc1cc(Cl)c(F)c(-c2cc3cn(-c4ccc([C@@H]5CCC[C@H]6CCN=CN65)cc4)c(=O)nc3[nH]2)c1` [Compound 567], the MIC in test [1] was above 16 µg/mL; in test [2] it was below 16 µg/mL.
The corresponding values for `C[C@H](N)CCCc1cc(Cl)c(F)c(-c2cc3cn(-c4ccc([C@@H]5CCO[C@@H](CCCN)C5)cc4)c(=O)nc3[nH]2)c1` [Compound 522] are below 16 µg/mL and below 16 µg/mL.
As for `C[C@H](N)CCCc1cc(Cl)c(F)c(-c2cc3cn(-c4ccc([C@H](C)NCC[C@H](CNC(=O)CN)NC(=N)N)cc4)c(=O)nc3[nH]2)c1` [Compound 368], the minimum inhibitory concentration (MIC) in test [1] and in test [2] was below 16 µg/mL in each case.
On to `C[C@H](N)CCCc1cc(OC(F)(F)F)c(F)c(-c2cc3cn(-c4ccc(CNCC[C@H](CN5CCOCC5)NC(=N)N)cc4)c(=O)nc3[nH]2)c1` [Compound 328], for which the MIC in test [1] and in test [2] was below 16 µg/mL throughout.
For the compound `C=C[C@H](CCNC(=N)N)N[C@@H](C)c1ccc(-n2cc3cc(-c4cc(CCC[C@H](C)N)cc(OC(F)(F)F)c4F)[nH]c3nc2=O)cc1` [Compound 383], the minimum inhibitory concentration (MIC) in test [1] and in test [2] was below 16 µg/mL in each case.
As for `C[C@H](N)CCCc1cc(Cl)c(F)c(-c2cc3cn(-c4ccc(CN[C@@H](C)C[C@H](CCO)NC(=N)N)cc4)c(=O)nc3[nH]2)c1` [Compound 360], the MIC in test [1] and in test [2] was below 16 µg/mL throughout.
Consider `C=C[C@@H](C[C@H](C)NCc1ccc(-n2cc3cc(-c4cc(CCC[C@H](C)N)cc(OC(F)(F)F)c4F)[nH]c3nc2=O)cc1)NC(=N)N` [Compound 337], for which the MIC in test [1] and in test [2] was below 16 µg/mL in each case.
`C[C@H](N)CCCc1cc(OC(F)(F)F)c(F)c(-c2cc3cn(-c4ccc([C@@H]5COC[C@H](CCNC(=N)N)N5)cc4)c(=O)nc3[nH]2)c1` [Compound 357]: the MIC in test [1] and in test [2] was below 16 µg/mL in each case.
Turning to `C[C@H](N)CCCc1cc(Cl)c(F)c(-c2cc3cn(-c4ccc([C@@H]5CCC[C@@H](CCCN)N5)cc4)c(=O)nc3[nH]2)c1` [Compound 557], the MIC in test [1] and in test [2] was below 16 µg/mL each time.
Consider `N=C(N)N[C@@H](CN)CCNCc1ccc(-n2cc3cc(-c4cc(CCC[C@@H](N)CO)cc(Cl)c4F)[nH]c3nc2=O)cc1` [Compound 399], for which the MIC in test [1] and in test [2] was below 16 µg/mL each time.
`C[C@@H](CN)CN1CC[C@@H](c2cc3cn(-c4ccc(CN5CCCNC5=N)cc4)c(=O)nc3[nH]2)C1` [Compound 574]: the minimal inhibitory concentration (MIC) in test [1] is below 16 µg/mL; in test [2], above 16 µg/mL.
The corresponding values for `C[C@H](N)CCCc1cccc(-c2cc3cn(-c4ccc([C@@H]5CCC[C@@H](CCNC(=N)N)N5)cc4)c(=O)nc3[nH]2)c1` [Compound 531] are below 16 µg/mL and below 16 µg/mL.
The corresponding values for `C[C@H](N)CCCc1cc(Cl)c(F)c(-c2cc3cn(-c4ccc([C@@H]5CCC[C@@H](CCc6nccs6)N5)cc4)c(=O)nc3[nH]2)c1` [Compound 546] are above 16 µg/mL and below 16 µg/mL.
The corresponding values for `C[C@H](N)CCCc1cc(Cl)c(F)c(-c2cc3cn(-c4ccc([C@@H]5CCC[C@H](CCNC(=N)N)N5)cc4)c(=O)nc3[nH]2)c1` [Compound 438] are below 16 µg/mL and below 16 µg/mL.
For the compound `C[C@H](N)CCCc1cc(OC(F)(F)F)c(F)c(-c2cc3cn(-c4ccc([C@@H]5COC[C@@H](CNC(=N)N)N5)cc4)c(=O)nc3[nH]2)c1` [Compound 466], the minimal inhibitory concentration (MIC) in test [1] and in test [2] was below 16 µg/mL throughout.
Turning to `C[C@H](N)CCCc1cc(OC(F)(F)F)c(F)c(-c2cc3cn(-c4ccc([C@@H]5CCC[C@@H](CCNc6ncc[nH]6)N5)cc4)c(=O)nc3[nH]2)c1` [Compound 553], the minimum inhibitory concentration (MIC) in test [1] and in test [2] was below 16 µg/mL in each case.
As for `N=C(N)NCC[C@@H]1CCC[C@@H](c2ccc(-n3cc4cc(-c5ccc(S(=O)(=O)NC6CCNCC6)cc5)[nH]c4nc3=O)cc2)N1` [Compound 492], the MIC in test [1] and in test [2] was below 16 µg/mL in each case.
On to `C[C@H](N)CCCc1cc(OC(F)(F)F)c(F)c(-c2cc3cn(-c4ccc([C@@H]5CCC[C@H](CCNC(=N)N)N5)cc4)c(=O)nc3[nH]2)c1` [Compound 439], for which the MIC in test [1] and in test [2] was below 16 µg/mL each time.
For `C=C[C@@H](C[C@H](C)NCc1ccc(-n2cc3cc(-c4cc(CCC[C@H](C)N)cc(Cl)c4F)[nH]c3nc2=O)cc1)NC(=N)N` [Compound 336], the minimum inhibitory concentration (MIC) in test [1] and in test [2] was below 16 µg/mL throughout.
Consider `C[C@H](N)CCCc1cc(Cl)c(F)c(-c2cc3cn(-c4ccc([C@@H]5CCC[C@@H](Cc6nn[nH]n6)N5)cc4)c(=O)nc3[nH]2)c1` [Compound 509], for which the minimal inhibitory concentration (MIC) in test [1] and in test [2] was above 16 µg/mL each time.
`C[C@H](N)CCCc1cc(Cl)c(F)c(-c2cc3cn(-c4ccc([C@@H]5CCC[C@@H](Cc6ncc(N)s6)N5)cc4)c(=O)nc3[nH]2)c1` [Compound 529]: the minimum inhibitory concentration (MIC) in test [1] and in test [2] was above 16 µg/mL each time.
As for `C[C@H](N)CCCc1cc(Cl)c(F)c(-c2cc3cn(-c4ccc(CN[C@H](CCNC(=N)N)CNc5ncccn5)cc4)c(=O)nc3[nH]2)c1` [Compound 524], the MIC in test [1] and in test [2] was below 16 µg/mL in each case.
In the case of `N=C(NC1CCCC1)c1ccc(-n2cc3cc(-c4ccc(S(=O)(=O)NC5CCNCC5)cc4)[nH]c3nc2=O)cc1` [Compound 504], the MIC in test [1] and in test [2] was above 16 µg/mL each time.
In the case of `C[C@H](N)CCCc1cc(Cl)c(F)c(-c2cc3cn(-c4ccc([C@@H]5CCC[C@@H](CNCc6ccncc6)N5)cc4)c(=O)nc3[nH]2)c1` [Compound 558], the MIC in test [1] and in test [2] was below 16 µg/mL throughout.
On to `C[C@H](NCCCNC(=N)N)c1ccc(-n2cc3cc(-c4cc(CCC[C@H](N)CO)cc(Cl)c4F)[nH]c3nc2=O)cc1` [Compound 476], for which the MIC in test [1] and in test [2] was below 16 µg/mL in each case.
For the compound `C[C@H](N)CCCc1cc(Cl)c(F)c(-c2cc3cn(-c4ccc([C@@H]5CCC[C@@H](CCNc6nccs6)N5)cc4)c(=O)nc3[nH]2)c1` [Compound 535], the minimum inhibitory concentration (MIC) in test [1] was above 16 µg/mL; in test [2], below 16 µg/mL.
In the same order, the values of `N=C(N)NCC[C@@H]1CCC[C@@H](c2ccc(-n3cc4cc(-c5cc(CCC[C@@H](N)CO)cc(Cl)c5F)[nH]c4nc3=O)cc2)N1` [Compound 484] are below 16 µg/mL and below 16 µg/mL.
In the same order, the values of `COc1ccc(Cn2cc([C@@H]3COC[C@H](c4ccc(-n5cc6cc(-c7cc(CCC[C@H](C)N)cc(Cl)c7F)[nH]c6nc5=O)cc4)N3)nn2)cc1` [Compound 392] are above 16 µg/mL and below 16 µg/mL.
In the same order, the values of `C[C@H](N)CCCc1cc(OC(F)(F)F)c(F)c(-c2cc3cn(-c4ccc(CN[C@H](C)C[C@H](CN)NC(=N)N)cc4)c(=O)nc3[nH]2)c1` [Compound 398] are below 16 µg/mL and below 16 µg/mL.
With `C[C@H](N)CCCc1cc(-c2cc3cn(CC(=O)NCc4ccc(CNC(=N)N)cc4)c(=O)nc3[nH]2)cc(C(F)(F)F)c1` [Compound 582], the MIC in test [1] and in test [2] was above 16 µg/mL throughout.
Consider `C[C@H](N)CCCc1cc(Cl)c(F)c(-c2cc3cn(-c4ccc([C@H](C)NCC[C@H](CC#N)NC(=N)N)cc4)c(=O)nc3[nH]2)c1` [Compound 332], for which the minimal inhibitory concentration (MIC) in test [1] and in test [2] was below 16 µg/mL in each case.
Turning to `C[C@H](N)CCCc1cc(OC(F)(F)F)c(F)c(-c2cc3cn(-c4ccc([C@@H]5CC(CCN)CN5)cc4)c(=O)nc3[nH]2)c1` (stereo partly drawn) [Compound 409], the minimum inhibitory concentration (MIC) in test [1] and in test [2] was below 16 µg/mL in each case.
Consider `C[C@H](N)CCCc1cc(Cl)c(F)c(-c2cc3cn(-c4ccc(CN[C@H](CCNC(=N)N)CNc5ncc[nH]5)cc4)c(=O)nc3[nH]2)c1` [Compound 536], for which the MIC in test [1] and in test [2] was below 16 µg/mL throughout.
`C[C@H](N)CCCc1cc(Cl)c(F)c(-c2cc3cn(-c4ccc([C@@H]5COC[C@H](CCNC(=N)N)N5)cc4)c(=O)nc3[nH]2)c1` [Compound 384]: the MIC in test [1] and in test [2] was below 16 µg/mL each time.
With `C[C@H](N)CCCc1cc(Cl)c(F)c(-c2cc3cn(-c4ccc(C5(N)CNC5)cc4)c(=O)nc3[nH]2)c1` [Compound 458], the values for the minimal inhibitory concentration (MIC) in test [1] and in test [2] were above 16 µg/mL and below 16 µg/mL, respectively.
In the same order, the values of `CCOP(=O)(OCC)OC[C@H](N)CCCc1cc(Cl)c(F)c(-c2cc3cn(-c4ccc([C@H](C)NCCCNC(=N)N)cc4)c(=O)nc3[nH]2)c1` [Compound 467] are below 16 µg/mL and below 16 µg/mL.
The corresponding values for `C=C[C@@H](CCNC(=N)N)NCc1ccc(-n2cc3cc(-c4cc(CCC[C@H](C)N)cc(OC(F)(F)F)c4F)[nH]c3nc2=O)cc1` [Compound 388] are below 16 µg/mL and below 16 µg/mL.
With `CC#C[C@@H](CCNC(=N)N)NCc1ccc(-n2cc3cc(-c4cc(CCC[C@H](C)N)cc(Cl)c4F)[nH]c3nc2=O)cc1` [Compound 507], the MIC in test [1] and in test [2] was below 16 µg/mL throughout.
Turning to `COCC[C@H](CCN[C@@H](C)c1ccc(-n2cc3cc(-c4cc(CCC[C@H](C)N)cc(OC(F)(F)F)c4F)[nH]c3nc2=O)cc1)NC(=N)N` [Compound 350], the MIC in test [1] and in test [2] was below 16 µg/mL each time.
As for `C[C@H](N)CCCc1cc(OC(F)(F)F)c(F)c(-c2cc3cn(-c4ccc([C@@H]5COC[C@H](CCN)N5)cc4)c(=O)nc3[nH]2)c1` [Compound 358], the MIC in test [1] and in test [2] was below 16 µg/mL each time.
For `C=C[C@H](C[C@H](C)NCc1ccc(-n2cc3cc(-c4cc(CCC[C@H](C)N)cc(OC(F)(F)F)c4F)[nH]c3nc2=O)cc1)NC(=N)N` [Compound 339], the MIC in test [1] and in test [2] was below 16 µg/mL each time.

Source of the values: patent US10815238B2, “Antimicrobial compounds and methods of making and using the same” (BIOVERSYS AG, priority 2013, dated 2020).
